Laboratory results published in the supplement of paper PMC10307832.

Legend:
Test in all cases: relative viability (nuclei count vs DMSO), 5 days (fraction); higher = more cells survive
AGI-6780 + Palbociclib = compound: O=C(Nc1cccc(C(F)(F)F)c1)Nc1cc(S(=O)(=O)NC2CC2)ccc1-c1ccsc1 [AGI-6780] + CC(=O)c1c(C)c2cnc(Nc3ccc(N4CCNCC4)cn3)nc2n(C2CCCC2)c1=O [Palbociclib] (partner 0.5 µM)
How it was run: (§1)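 Values are medians from duplicate plates. Each reflects relative viability, defined as the nuclei count of treated wells over that of vehicle wells. Lung cancer cell lines in 1536-well plates were pin-tool dosed one day after seeding with one drug alone or with a fixed anchor-drug dose plus five library-drug doses (not always all listed) in √10 steps, then fixed, stained and imaged at 4× after 5 days.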

AGI-6780 + Luminespib = compound: O=C(Nc1cccc(C(F)(F)F)c1)Nc1cc(S(=O)(=O)NC2CC2)ccc1-c1ccsc1 [AGI-6780] + CCNC(=O)c1noc(-c2cc(C(C)C)c(O)cc2O)c1-c1ccc(CN2CCOCC2)cc1 [Luminespib] (partner 0.01 µM)
How it was run: as §1

AGI-6780 + OSI-027 = compound: O=C(Nc1cccc(C(F)(F)F)c1)Nc1cc(S(=O)(=O)NC2CC2)ccc1-c1ccsc1 [AGI-6780] + COc1cccc2cc(-c3nc([C@H]4CC[C@H](C(=O)O)CC4)n4ncnc(N)c34)[nH]c12 [OSI-027] (partner 0.5 µM)
How it was run: as §1

AGI-6780 + Pictilisib = compound: O=C(Nc1cccc(C(F)(F)F)c1)Nc1cc(S(=O)(=O)NC2CC2)ccc1-c1ccsc1 [AGI-6780] + CS(=O)(=O)N1CCN(Cc2cc3nc(-c4cccc5[nH]ncc45)nc(N4CCOCC4)c3s2)CC1 [Pictilisib] (partner 1 µM)
How it was run: as §1

| Cell Line | relative viability (AGI-6780 + Palbociclib; first compound 0.08 µM) | relative viability (AGI-6780 + Palbociclib; first compound 0.253 µM) | relative viability (AGI-6780 + Palbociclib; first compound 0.8 µM) | relative viability (AGI-6780 + Palbociclib; first compound 2.53 µM) | relative viability (AGI-6780 + Palbociclib; first compound 8 µM) | relative viability (AGI-6780 + Luminespib; first compound 0.08 µM) | relative viability (AGI-6780 + Luminespib; first compound 0.253 µM) | relative viability (AGI-6780 + Luminespib; first compound 0.8 µM) | relative viability (AGI-6780 + Luminespib; first compound 2.53 µM) | relative viability (AGI-6780 + Luminespib; first compound 8 µM) | relative viability (AGI-6780 + OSI-027; first compound 0.08 µM) | relative viability (AGI-6780 + OSI-027; first compound 0.253 µM) | relative viability (AGI-6780 + OSI-027; first compound 0.8 µM) | relative viability (AGI-6780 + OSI-027; first compound 2.53 µM) | relative viability (AGI-6780 + OSI-027; first compound 8 µM) | relative viability (AGI-6780 + Pictilisib; first compound 0.08 µM) | relative viability (AGI-6780 + Pictilisib; first compound 0.253 µM) | relative viability (AGI-6780 + Pictilisib; first compound 0.8 µM) | relative viability (AGI-6780 + Pictilisib; first compound 2.53 µM) | relative viability (AGI-6780 + Pictilisib; first compound 8 µM) |
| --- | --- | --- | --- | --- | --- | --- | --- | --- | --- | --- | --- | --- | --- | --- | --- | --- | --- | --- | --- | --- |
| LOU-NH91 | 0.529 | 0.528 | 0.521 | 0.515 | 0.55 | 0.411 | 0.337 | 0.436 | 0.328 | 0.305 | 0.739 | 0.705 | 0.676 | 0.621 | 0.709 | 0.524 | 0.529 | 0.554 | 0.505 | 0.525 |
| HCC-15 | 0.787 | 0.649 | 0.689 | 0.718 | 0.728 | 0.407 | 0.247 | 0.274 | 0.38 | 0.3 | 0.743 | 0.763 | 0.783 | 0.458 | 0.725 | 0.88 | 0.82 | 0.834 | 0.594 | 0.801 |
| HCC-827 | 0.485 | 0.488 | 0.478 | 0.466 | 0.481 | 0.584 | 0.586 | 0.707 | 0.467 | 0.454 | 0.68 | 0.705 | 0.824 | 0.673 | 0.798 | 0.896 | 0.916 | 1.03 | 0.856 | 0.823 |
| NCI-H1703 | – | – | – | – | – | – | – | – | – | – | – | – | – | – | – | 0.336 | 0.197 | 0.259 | 0.223 | 0.248 |
| NCI-H2405 | – | 0.532 | 0.45 | 0.47 | 0.526 | 0.686 | 0.718 | 0.5 | 0.515 | 0.65 | 0.671 | 0.651 | 0.525 | 0.549 | 0.596 | 0.411 | 0.467 | 0.262 | – | 0.53 |
| PC-3 [JPC-3] | – | 0.574 | 0.563 | 0.566 | 0.571 | 0.59 | 0.71 | 0.727 | 0.629 | 0.67 | 0.776 | 0.748 | 0.781 | 0.691 | 0.76 | 0.767 | 0.78 | 0.819 | 0.687 | 0.691 |
| NCI-H2085 | 0.469 | 0.5 | 0.469 | 0.535 | 0.5 | 0.409 | 0.457 | 0.482 | 0.347 | 0.39 | 0.77 | 0.825 | 0.805 | 0.513 | 0.89 | 0.468 | 0.541 | 0.48 | 0.404 | 0.491 |
| 201T | 0.359 | 0.367 | 0.353 | 0.329 | 0.344 | 1.09 | 1.04 | 1.06 | 0.988 | 1.08 | 0.713 | 0.694 | 0.723 | 0.325 | 0.753 | 0.699 | 0.735 | 0.686 | 0.647 | 0.702 |
| NCI-H1975 | 0.569 | 0.673 | 0.531 | 0.492 | 0.584 | 0.259 | 0.184 | 0.222 | 0.263 | 0.161 | 0.813 | 0.751 | 0.767 | – | 0.67 | 0.315 | 0.3 | 0.31 | 0.244 | 0.26 |
| NCI-H2023 | 0.394 | 0.372 | 0.421 | 0.357 | 0.4 | 0.877 | 0.688 | 0.602 | 0.553 | 0.686 | 0.434 | 0.455 | 0.447 | 0.301 | 0.337 | 0.284 | 0.279 | 0.271 | 0.181 | 0.229 |
| BEN | 0.488 | 0.429 | 0.457 | – | 0.502 | 0.355 | 0.331 | 0.37 | 0.33 | 0.358 | 0.311 | 0.298 | 0.321 | 0.28 | 0.304 | 0.527 | 0.629 | 0.586 | – | 0.521 |
| RERF-LC-KJ | 1.06 | 1.09 | 1.07 | 0.93 | 1.01 | 1.25 | 1.17 | 1.33 | 1.16 | 1.17 | 0.579 | 0.719 | 0.614 | 0.465 | 0.454 | 0.559 | 0.537 | 0.604 | 0.418 | 0.467 |
| SK-MES-1 | 0.31 | 0.346 | 0.27 | 0.285 | 0.294 | 0.716 | 0.714 | 0.798 | 0.677 | 0.801 | 0.635 | 0.662 | 0.561 | 0.448 | 0.509 | 0.365 | 0.367 | 0.338 | 0.273 | 0.344 |
| PC-14 | 0.533 | 0.538 | 0.568 | 0.553 | 0.546 | 0.228 | 0.195 | 0.171 | 0.118 | 0.121 | 0.833 | 0.822 | 0.814 | 0.678 | 0.922 | 0.927 | 0.681 | 0.893 | 0.55 | 0.857 |
| NCI-H1437 | 0.296 | 0.365 | 0.25 | 0.347 | 0.322 | 1.21 | 1.06 | 1.17 | 1.22 | 1.1 | 0.851 | 0.86 | 0.859 | 0.898 | 0.927 | 0.438 | 0.545 | 0.432 | 0.283 | 0.43 |
| NCI-H1993 | 0.693 | 0.649 | 0.78 | – | 0.609 | 0.747 | 0.913 | 0.705 | 0.642 | 0.857 | 0.367 | 0.614 | 0.46 | 0.588 | 0.554 | 0.0371 | 0.802 | 0.854 | 0.661 | 0.82 |
| LK-2 | 0.671 | 0.643 | 0.823 | – | 0.679 | 0.189 | 0.169 | 0.183 | – | 0.202 | 0.172 | 0.224 | 0.189 | – | 0.197 | 0.413 | 0.461 | 0.601 | – | 0.505 |
